Laboratory results from patent US20180230097A1, “PROCESS FOR PREPARATION OF APREMILAST AND NOVEL POLYMORPHS THEREOF” (LUPIN LIMITED, priority 2015, published 2018).

What was measured:
[1] = Polymorph stability under temperature/humidity storage (PXRD, FIG. 15 and 16); assay type: physicochemical; conditions: 25° C. to 40° C. temperature, 5% to 75% humidity (RH); FIG. 15 25° C./60% RH/2M, FIG. 16 40° C./75% RH/2M
Protocol: The term “stable” with respect polymorph or to a drug dosage form, refers to the chemical and physical integrity of the polymorph or dosage unit and, when appropriate, the ability of the dosage unit to maintain protection against microbiological contamination.
The Form M of apremilast is stable at different set of conditions such as 25° C. to 40° C. temperature, 5% to 75% humidity (RH) for durations as depicted in FIG. 15 and FIG. 16.
Using a PANalytical X'Pert powder diffraction meter, the x-ray powder diffraction pattern was measured at room temperature using a Cu Ka filled tube (45 kV 40 mA) as the x-ray source. Data collection was done in 2theta continuous scan mode in the range of 3.5° to 40°.

[2] = Solubility of Form M in various media; assay type: physicochemical; conditions: water, hydrochloric acid, acetate Buffer, and phosphate Buffer at different pH

stability of polymorph [1]: stable | solubility in various medium [2]: good solubility
SMILES: CCOc1cc(C(CS(C)(=O)=O)N2C(=O)c3cccc(NC(C)=O)c3C2=O)ccc1OC (centres unmarked) [Form M]
